Experimental findings from patent US20250241347A1, “COMPOSITIONS AND METHODS FOR TASTE MODULATION” (INTERNATIONAL FLAVORS & FRAGRANCES INC., priority 2019, published 2025) are described below.

The nature of test [1]: Masking effect on benzoic acid, trained panel. Also noted: species or system human. The conditions noted are these: base benzoic acid 250 ppm in water; for Masking Intensity: panel average, scale 0-5. From the text:
(§1) Preparation of Test Samples: […], oroxylin A-7 glucouronide, wogonoside, baicalein, oroxylin A and wogonin were purchased commercially. S. baicalensis extract (“Extract”) and cabohydrase-treated S. baicalensis extract (“Treated Extract”) were obtained as above in Example 1.
(§2) Subsequently, all compounds and extracts were applied to different bases for evaluating their off-taste masking functions.
(§3) Testing Procedure: The masking effects on the off-tastes (bitterness, sourness, astringency, lingering and drying aftertaste, etc.) associated with various food components was evaluated by a group of 16 trained panelist. Each provided a rank of masking intensity using the intensity scales of 0 to 5, where 0 represents “no masking effect,” 1 represents “minimal masking intensity” and 5 represents “the most masking intensity.” The average of the reported making intensity is presented in the following examples.
A base solution of benzoic acid was prepared in water (250 ppm). […] The flavor profile of the benzoic acid solutions with compounds or extracts was further evaluated and is reported in the following: […]

Test [2] in a line: Masking effect on sorbic acid, trained panel. Also noted: species or system human. As to conditions: base sorbic acid 150 ppm in water, test sample 0.5 ppm; for Masking Intensity: panel average, scale 0-5.
Text: as §1, §2, §3
A base solution of sorbic acid was prepared in water (150 ppm). […] The flavor profile of the sorbic acid solutions with compounds or extracts were further evaluated and is reported in the following: […]

Test [3] in a line: Masking effect on Reb A, trained panel. Also noted: species or system human. As to conditions: base Reb A 200 ppm in water; for Masking Intensity: panel average, scale 0-5.
Text: as §1, §2, §3
A base solution of Reb A was prepared in water (200 ppm). […] The flavor profile of the Reb A solutions with compounds or extracts were further evaluated and is reported in the following: […]

Test [4] is described as follows: Masking effect on pea protein, trained panel. Also noted: species or system human. The conditions noted are these: base TRUPRO pea protein 5% in water, test sample 0.5 ppm; for Masking Intensity: panel average, scale 0-5.
Text: as §1, §2, §3
A base solution of TRUPRO® pea protein (Solae LLC) was prepared in water (5%). […] The flavor profile of the pea protein solutions with compounds or extracts were further evaluated and is reported in the following: […]

Test [5] is described as follows: Masking effect on citric acid, trained panel. Also noted: species or system human. As to conditions: base citric acid 300 ppm in water, test sample 0.5 ppm; for Masking Intensity: panel average, scale 0-5.
Text: as §1, §2, §3
A base solution of citric acid was prepared in water (300 ppm). […] The flavor profile of the citric acid solutions with compounds or extracts were further evaluated and is reported in the following: […]

Test [6] can be described thus: Masking effect on Acesulfame-K, trained panel. Also noted: species or system human. As to conditions: base Acesulfame-K 300 ppm in water; for Masking Intensity: panel average, scale 0-5.
Text: as §1, §2, §3
A base solution of Acesulfame-K was prepared in water (300 ppm). […] The flavor profile of the Acesulfame-K solutions with compounds or extracts were further evaluated and is reported in the following: […]

Test [7] is described as follows: Masking effect on Reb M, trained panel. The conditions noted are these: base Reb M 200 ppm in water, test sample 0.5 ppm; for Masking Intensity: panel average, scale 0-5. Also noted: species or system human.
Text: as §1, §2, §3
A base solution of Reb M was prepared in water (200 ppm). […] The flavor profile of the Reb M solutions with compounds or extracts were further evaluated and is reported in the following: […]

Test [8] is described as follows: Taste modulating activity of the individual compounds. As to conditions: for taste modulation effect: flavone aglycones versus corresponding flavone glycosides; for taste modulating activity: individual compounds, Example 1. On the procedure: With bio-transformation, most baicalin was converted to baicalein; oroxylin A glucuronide was converted to oroxylin A; and wogonoside was converted to wogonin. The activity of the individual compounds was also analyzed for taste modulating activity.

For the molecule `COc1c(OC2OC(C(=O)O)C(O)C(O)C2O)cc2oc(-c3ccccc3)cc(=O)c2c1O` [Oroxylin A-7 glucuronide, 5,7-dihydroxy-6-methoxyflavone-7-O-β-D-glucuronopyranoside, reference compound], the “Masking Intensity” value in test [1] (test sample 0.5 ppm) amounted to 1; in test [2], 2; in test [3] (test sample 0.5 ppm), 1; in test [4], 1; in test [5], 1; in test [6] (test sample 0.5 ppm), 1. Moreover, in test [7], the “Masking Intensity” value came to 2. Further, the “Flavor Profile” value in test [2] is “Slightly reduced drying aftertaste”; in test [3] (test sample 0.5 ppm), “Slightly reduced astringency, licorice flavor”; in test [7], “Slightly reduced bitterness and lingering”. In addition, the taste modulation effect entry in test [8] is given as “weak taste modulation effect”. In addition, the taste modulating activity entry in test [8] was “some activity”.

`O=C(O)C1OC(Oc2cc3oc(-c4ccccc4)cc(=O)c3c(O)c2O)C(O)C(O)C1O` (stereo not shown) [Baicalin, 5,6-dihydroxy-7-O-glucuronide flavone, reference compound]: the “Masking Intensity” value in test [1] (test sample 0.5 ppm), in test [2], in test [3] (test sample 0.5 ppm), in test [4], in test [5] and in test [6] (test sample 0.5 ppm) was 1 each time. Besides, the “Masking Intensity” value in test [7] amounted to 1. For the same molecule, the taste modulation effect entry in test [8] is “weak taste modulation effect”. For the same molecule, the taste modulating activity result in test [8] is listed as “some activity”.

On to `COc1c(OC2OC(C(=O)O)C(O)C(O)C2O)cc(O)c2c(=O)cc(-c3ccccc3)oc12` [Wogonoside, wogonin 7-O-β-D-glucuronide, reference compound], for which the “Masking Intensity” value was determined as 1 in test [1] (test sample 0.5 ppm); 2 in test [2]; 1 in test [3] (test sample 0.5 ppm); 2 in test [4]; 1 in test [5]; 1 in test [6] (test sample 0.5 ppm). In addition, the “Masking Intensity” value in test [7] turned out to be 1. Besides, the “Flavor Profile” value was “Slightly reduced astringency, licorice flavor” in test [3] (test sample 0.5 ppm); “Slightly reduced astringency and bitterness,” in test [4]. In test [8], the taste modulation effect entry is given as “weak taste modulation effect”. For the same molecule, in test [8], the taste modulating activity result is reported as “some activity”.

With `COc1c(O)cc2oc(-c3ccccc3)cc(=O)c2c1O` [Oroxylin A, 5,7-dihydroxy-6-methoxyflavone], the “Masking Intensity” value in test [1] (test sample 0.001 ppm) is given as 0; in test [1] (test sample 0.01 ppm), 1; in test [1] (test sample 0.1 ppm), 3; in test [1] (test sample 0.5 ppm) it was 4; in test [1] (test sample 1 ppm) it was 5; in test [1] (test sample 10 ppm), 4. Further, the “Masking Intensity” value is 3 in test [1] (test sample 50 ppm); 4 in test [2]; 2 in test [3] (test sample 0.01 ppm); 3 in test [3] (test sample 0.1 ppm); 5 in test [3] (test sample 0.5 ppm); 4 in test [3] (test sample 10 ppm). The “Masking Intensity” value in test [3] (test sample 50 ppm) is 2; in test [4], 4; in test [5], 5; in test [6] (test sample 0.01 ppm), 1; in test [6] (test sample 0.1 ppm), 3; in test [6] (test sample 0.5 ppm) it was 5. For the same molecule, the “Masking Intensity” value in test [6] (test sample 10 ppm) is recorded as 4; in test [6] (test sample 50 ppm), 2; in test [7] it was 5. In addition, the “Flavor Profile” value was “Reduced astringency, sourness, and drying” in test [1] (test sample 0.5 ppm); “Reduced astringency, sourness, and drying” in test [1] (test sample 1 ppm); “Reduced astringency, sourness, and drying” in test [1] (test sample 10 ppm); “Reduced astringency, sourness, and drying” in test [1] (test sample 50 ppm); “Reduced astringency, sourness, and drying” in test [2]; “Slightly reduced astringency, licorice flavor” in test [3] (test sample 0.01 ppm). For the same molecule, the “Flavor Profile” value in test [4] is “Reduced astringency and bitterness, less”; in test [5] it was “Reduced tart taste, more pleasant”; in test [6] (test sample 0.1 ppm), “Reduced bitterness and lingering aftertaste”; in test [6] (test sample 0.5 ppm) it was “Reduced bitterness and lingering aftertaste,”; in test [6] (test sample 10 ppm), “Reduced lingering aftertaste, very slight”; in test [6] (test sample 50 ppm) it was “Reduced lingering aftertaste, noticeable”. Also, in test [7], the “Flavor Profile” value was “Reduced bitterness and lingering aftertaste,”. For the same molecule, the taste modulating activity entry in test [8] is “more active”.
